We go through 16 compounds from patent publication US20230263903A1, “PYRAZOLOAZEPINE IMMUNOCONJUGATES, AND USES THEREOF” (BOLT BIOTHERAPEUTICS, INC., priority 2020, published 2023).

One may read the EC50 as the midpoint of the concentration-response curve.

Structures are written as SMILES.

The target in one data set is T1, human TLR7 (Homo sapiens, UniProt Q9NYK1).
T1 construct: host or cells: HEK293 NF-kB reporter cells
T1 sequence (Q9NYK1 27-1049): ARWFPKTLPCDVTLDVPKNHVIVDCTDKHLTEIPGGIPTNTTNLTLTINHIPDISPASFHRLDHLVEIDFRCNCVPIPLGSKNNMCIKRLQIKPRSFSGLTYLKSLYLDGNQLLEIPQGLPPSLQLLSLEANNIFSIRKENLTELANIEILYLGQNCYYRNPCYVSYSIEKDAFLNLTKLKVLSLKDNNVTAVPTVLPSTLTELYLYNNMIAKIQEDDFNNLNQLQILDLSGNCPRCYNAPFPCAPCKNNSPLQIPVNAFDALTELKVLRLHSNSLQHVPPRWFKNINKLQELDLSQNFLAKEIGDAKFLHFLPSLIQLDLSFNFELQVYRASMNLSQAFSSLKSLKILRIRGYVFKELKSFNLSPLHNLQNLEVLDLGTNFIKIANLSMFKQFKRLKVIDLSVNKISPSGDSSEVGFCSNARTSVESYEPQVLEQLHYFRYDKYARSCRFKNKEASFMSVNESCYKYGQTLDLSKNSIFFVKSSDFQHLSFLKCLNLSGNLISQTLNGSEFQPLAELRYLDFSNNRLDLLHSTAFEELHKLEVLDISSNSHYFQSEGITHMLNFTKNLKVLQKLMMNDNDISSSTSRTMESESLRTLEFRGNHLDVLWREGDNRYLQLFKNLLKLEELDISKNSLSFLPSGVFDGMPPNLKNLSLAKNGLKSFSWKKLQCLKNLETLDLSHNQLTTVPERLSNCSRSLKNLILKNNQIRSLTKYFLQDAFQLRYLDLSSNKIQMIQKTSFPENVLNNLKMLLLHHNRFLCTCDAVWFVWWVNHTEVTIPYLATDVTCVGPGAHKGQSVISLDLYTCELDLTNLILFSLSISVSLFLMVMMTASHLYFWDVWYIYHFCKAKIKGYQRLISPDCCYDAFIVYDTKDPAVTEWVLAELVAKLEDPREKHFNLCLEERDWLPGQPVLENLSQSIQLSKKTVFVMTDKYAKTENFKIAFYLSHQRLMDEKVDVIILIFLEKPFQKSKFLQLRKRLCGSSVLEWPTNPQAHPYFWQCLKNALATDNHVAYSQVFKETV
In words: HEK Reporter Assay, HEK293 cells expressing human TLR7. The class given is cell-based. Conditions: for EC50: HEK293 NFKB reporter cells expressing human TLR7, read-out: HEK293 hTLR7 EC50; for TLR7 activity relative to known TLR7 adjuvant C-1: HEK human TLR7 activity at 24 hours, FIG. 1. As for the experimental part: (§1) Activity against HEK293 NFKB reporter cells expressing human TLR7 or human TLR8 was measured according to Example 202.
(§2) Example 202 HEK Reporter Assay
(§3) HEK293 reporter cells expressing human TLR7 or human TLR8 were purchased from Invivogen and vendor protocols were followed for cellular propagation and experimentation. Briefly, cells were grown to 80-85% confluence at 5% CO2 in DMEM supplemented with 10% FBS, Zeocin, and Blasticidin. Cells were then seeded in 96-well flat plates at 4×10^4 cells/well with substrate containing HEK detection medium and immunostimulatory molecules.
A general note: In a reporter assay the amount or activity of a reporter protein is the signal.

A further data set addresses T2, human TLR8 (Homo sapiens, UniProt Q9NR97).
T2 construct: host or cells: HEK293 NF-kB reporter cells
T2 sequence (Q9NR97 27-1041): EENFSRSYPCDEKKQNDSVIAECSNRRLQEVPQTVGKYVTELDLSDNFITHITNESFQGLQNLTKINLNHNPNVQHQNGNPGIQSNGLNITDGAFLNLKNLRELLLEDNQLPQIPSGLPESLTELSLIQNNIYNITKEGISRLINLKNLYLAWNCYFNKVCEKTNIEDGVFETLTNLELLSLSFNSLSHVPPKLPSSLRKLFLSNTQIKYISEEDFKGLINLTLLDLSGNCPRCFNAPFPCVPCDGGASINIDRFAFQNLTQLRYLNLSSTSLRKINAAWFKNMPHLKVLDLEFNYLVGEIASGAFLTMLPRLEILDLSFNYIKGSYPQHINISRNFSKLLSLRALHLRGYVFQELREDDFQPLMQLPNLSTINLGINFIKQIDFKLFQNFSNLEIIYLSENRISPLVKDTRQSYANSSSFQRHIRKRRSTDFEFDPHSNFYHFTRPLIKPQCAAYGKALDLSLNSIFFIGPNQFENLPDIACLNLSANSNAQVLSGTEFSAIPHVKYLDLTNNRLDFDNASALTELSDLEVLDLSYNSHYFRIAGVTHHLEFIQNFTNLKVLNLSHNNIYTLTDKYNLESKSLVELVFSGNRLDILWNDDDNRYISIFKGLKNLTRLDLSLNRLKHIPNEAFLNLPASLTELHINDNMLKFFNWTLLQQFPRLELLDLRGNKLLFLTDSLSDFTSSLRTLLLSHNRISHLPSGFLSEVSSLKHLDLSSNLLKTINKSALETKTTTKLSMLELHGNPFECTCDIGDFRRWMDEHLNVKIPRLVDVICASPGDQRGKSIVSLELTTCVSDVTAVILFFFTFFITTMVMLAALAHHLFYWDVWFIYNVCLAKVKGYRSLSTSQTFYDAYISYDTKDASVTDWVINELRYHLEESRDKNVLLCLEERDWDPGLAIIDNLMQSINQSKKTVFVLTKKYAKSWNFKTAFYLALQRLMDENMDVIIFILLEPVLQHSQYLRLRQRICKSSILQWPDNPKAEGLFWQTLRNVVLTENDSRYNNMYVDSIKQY
In words: HEK Reporter Assay, HEK293 cells expressing human TLR8. The class given is cell-based. Particulars: for EC50: HEK293 NFKB reporter cells expressing human TLR8, read-out: HEK293 hTLR8 EC50. As for the experimental part:
as §1, §2, §3

The nature of data set [1]: Hydrophilicity comparison with comparator C-2. The class given is physicochemical.

As for `CCCN(CCCNC(=O)CC(C)(C)C)C(=O)C1=Cc2nn(CCCCCNC(=O)OC(C)(C)C)cc2N=C(N)C1` [PAZ-10, tert-butyl N-[5-[5-amino-7-[3-(3,3-dimethylbutanoylamino)propyl-propyl-carbamoyl]-6H-pyrazolo[4,3-b]azepin-2-yl]pentyl]carbamate], the results for the concentration for a half-maximal effect (EC50) on human TLR7 and at human TLR8 were > 9 µM and 3.23 µM, respectively.
As to `CCCN(CCC)C(=O)C1=Cc2ccc(-c3cccc(S(=O)(=O)N4CC(CO)C4)c3)cc2N=C(N)C1` [C-2, reference compound], the concentration for a half-maximal effect (EC50) is > 9 µM at human TLR7 and 1.59 µM at human TLR8.
On to `CCCN(CCC)C(=O)C1=Cc2nn(CCCCCN)cc2N=C(N)C1` [PAZ-3], for which the EC50 at human TLR7 and at human TLR8 was > 9 µM in each case.
Consider `CCCN(CCC)C(=O)C1=Cc2nn(CCCCCNC(=O)OC(C)(C)C)cc2N=C(N)C1` [PAZ-5], for which the EC50 on human TLR7 and on human TLR8 was > 9 µM in each case.
With `CCCN(CCC)C(=O)C1=Cc2c(cnn2Cc2ccc(CNC(=O)OC(C)(C)C)cc2)N=C(N)C1` [PAZ-13, tert-butyl N-[[4-[[5-amino-7-(dipropylcarbamoyl)-6H-pyrazolo[4,3-b]azepin-1-yl]methyl]phenyl]methyl]carbamate], the figures for the EC50 on human TLR7 and on human TLR8 were 0.881 µM and 3.84 µM, respectively.
For `CCCN(CCC)C(=O)C1=Cc2c(cnn2C)N=C(N)C1` [PAZ-1, 5-amino-1-methyl-N,N-dipropyl-1,6-dihydropyrazolo[4,3-b]azepine-7-carboxamide], in that order: > 9 µM and 4.15 µM.
In the same order, the values of `CCCN(CCCNC(=O)CC(C)(C)C)C(=O)C1=Cc2c(cnn2CCCCCNC(=O)OC(C)(C)C)N=C(N)C1` [PAZ-8, tert-butyl N-[5-[5-amino-7-[3-(3,3-dimethylbutanoylamino)propyl-propyl-carbamoyl]-6H-pyrazolo[4,3-b]azepin-1-yl]pentyl]carbamate] are 2.75 µM and > 9 µM.
Regarding `CCCN(OCC)C(=O)C1=Cc2c(cnn2CCCCCNC(=O)OC(C)(C)C)N=C(N)C1` [PAZ-11, tert-butyl N-[5-[5-amino-7-[ethoxy(propyl)carbamoyl]-6H-pyrazolo[4,3-b]azepin-1-yl]pentyl]carbamate], on human TLR7, the 50% effective concentration (EC50) stood at 0.795 µM and the “TLR7 activity relative to known TLR7 adjuvant C-1” value is on record as “comparable TLR7 activity”. For the same compound, the concentration giving a half-maximal response (EC50) on human TLR8 worked out at 1.49 µM. Moreover, the “TLR8 potency relative to known TLR8 adjuvant C-2” value at human TLR8 (HEK human TLR8 activity at 24 hours, FIG. 2) is reported as “better TLR8 potency”. Further, the “hydrophilicity relative to C-2” value in data set [1] was “improved hydrophilicity”.
On to `CCCN(CCC)C(=O)C1=Cc2c(cnn2CCCCCNC(=O)OC(C)(C)C)N=C(N)C1` [PAZ-4, tert-butyl N-[5-[5-amino-7-(dipropylcarbamoyl)-6H-pyrazolo[4,3-b]azepin-1-yl]pentyl]carbamate], for which the 50% effective concentration (EC50) at human TLR7 turned out to be 2.92 µM; on human TLR8 it was 3.1 µM.
For `CCCN(CCC)C(=O)C1=Cc2c(cnn2Cc2ccc(CN)cc2)N=C(N)C1` [PAZ-14, 5-amino-1-[[4-(aminomethyl)phenyl]methyl]-N,N-dipropyl-6H-pyrazolo[4,3-b]azepine-7-carboxamide], in that order: 5.59 µM and > 9 µM.
For `CCCN(CCC)C(=O)C1=Cc2nn(C)cc2N=C(N)C1` [PAZ-6, 5-amino-2-methyl-N,N-dipropyl-6H-pyrazolo[4,3-b]azepine-7-carboxamide], in that order: > 9 µM and 4.05 µM.
Turning to `CCCN(CCCNC(=O)OC1CCC1)C(=O)C1=Cc2c(cnn2CCCCCN)N=C(N)C1` [PAZ-15, cyclobutyl (3-(5-amino-1-(5-aminopentyl)-N-propyl-1,6-dihydropyrazolo[4,3-b]azepine-7-carboxamido)propyl)carbamate], the EC50 on human TLR7 and on human TLR8 was > 9 µM each time.
Turning to `CCCN(CCC)C(=O)C1=Cc2c(cnn2CCCCCN)N=C(N)C1` [PAZ-2, 5-amino-1-(5-aminopentyl)-N,N-dipropyl-6H-pyrazolo[4,3-b]azepine-7-carboxamide], the concentration for a half-maximal effect (EC50) was > 9 µM on human TLR7 and 2.96 µM at human TLR8. Further, on human TLR7, the “TLR7 activity relative to known TLR7 adjuvant C-1” value was “comparable TLR7 activity”.
For the compound `CCCN(CCCNC(=O)CC(C)(C)C)C(=O)C1=Cc2nn(CCCCCN)cc2N=C(N)C1` [PAZ-9, 5-amino-2-(5-aminopentyl)-N-[3-(3,3-dimethylbutanoylamino)propyl]-N-propyl-6H-pyrazolo[4,3-b]azepine-7-carboxamide], the EC50 on human TLR7 and on human TLR8 was > 9 µM each time.
Regarding `CCCN(OCC)C(=O)C1=Cc2c(cnn2CCCCCN)N=C(N)C1` [PAZ-12, 5-amino-1-(5-aminopentyl)-N-ethoxy-N-propyl-6H-pyrazolo[4,3-b]azepine-7-carboxamide], the results for the EC50 at human TLR7 and on human TLR8 were 3.21 µM and 0.29 µM, respectively.
For `CCCN(CCCNC(=O)CC(C)(C)C)C(=O)C1=Cc2c(cnn2CCCCCN)N=C(N)C1` [PAZ-7, 5-amino-1-(5-aminopentyl)-N-[3-(3,3-dimethylbutanoylamino)propyl]-N-propyl-6H-pyrazolo[4,3-b]azepine-7-carboxamide], in that order: > 9 µM and > 9 µM.
